# Test results taken from PubChem BioAssay AID449750 (Broad Institute, 2010).
# Calls of active or inactive are those of the source. How the calls were made is not given here.
# Assay: non-covalent RecA intein splicing inhibitors, dose response, biochemical, cell-free, fluorescence, secondary screen (AID 449750)
row,Compound,AC50
1,Cc1cccc(C(=O)c2cnc3ccccc3c2-c2ccccc2)c1,14.4 µM
2,FC(F)(F)c1ccc2c(c1)N(CCCN1CCN(CCCl)CC1)c1ccccc1S2,2.54 µM
3,O=C(CCl)N1c2ccccc2CCc2ccccc21,3.76 µM
4,NS(=O)(=O)c1ccc(N=Nc2ccc(=O)[nH]c2O)cc1,24.6 µM
5,COc1ccc(C(c2c(C)[nH]n(-c3ccccc3)c2=O)c2c(C)[nH]n(-c3ccccc3)c2=O)cc1OC,1.38 µM
6,Cc1ccc(C(C[N+](=O)[O-])c2c(C)[nH]n(-c3ccccc3)c2=O)cc1 (stereo not drawn),5.5 µM
7,CN(C)c1ncc(C2=C(Cl)C(=O)C(N3CCCC3)=C(Cl)C2=O)s1,14 µM
8,O=C(COC(=O)C1CC(=O)N(Cc2ccco2)C1)c1ccc(OC(=O)c2ccco2)cc1 (stereo not drawn),> 38 µM (inactive)
9,CCOC(=O)C(C(=O)OCC)c1cc(Br)c2noc3c2c1C(=O)c1ccccc1-3,8.74 µM
10,Cc1ccc2c(c1)c1nnc(SCC(=O)Nc3ccc(N(C)C)cc3)nc1n2CC(=O)O,> 38 µM (inactive)
11,CCOc1cc(C(c2c(C)[nH][nH]c2=O)c2c(C)[nH][nH]c2=O)cc(Cl)c1O,> 38 µM (inactive)
12,CC1(N2CCOCC2)CC2(O)C(=[N+]1[O-])CCc1nonc12 (stereo not drawn),36.5 µM
13,COc1ccc(C2CC(c3cccs3)=NN2C(=O)CSC2=NCCS2)cc1 (stereo not drawn),38.2 µM
14,Cn1cnc([N+](=O)[O-])c1Oc1ccc2ccccc2c1,> 38 µM (inactive)
15,CSc1nc(=S)n(-c2ccc([N+](=O)[O-])cc2)c(C)c1C(C)=O,> 38 µM (inactive)
16,COc1cc(C(c2c(C)[nH][nH]c2=O)c2c(C)[nH][nH]c2=O)cc(OC)c1OC,11.8 µM
17,Nc1ccc2nc(Cc3ccccc3)[nH]c2c1,> 38 µM (inactive)
18,CCCc1noc2c1C(c1ccoc1)C(C#N)=C(N)N2 (stereo not drawn),> 38 µM (inactive)
19,O=c1[nH]c(Nc2ccc(F)cc2)cc2ccccc12,2.58 µM
20,CCCCCCCCCCOC(=O)Cn1c(COc2cccc(OC)c2)[n+](C)c2ccccc21,9.12 µM
21,Cc1cc(C)c(S(=O)(=O)Nc2cc(SCC(=O)O)c(O)c3ccccc23)cc1C,2.58 µM
22,COc1cccc(Nc2c([N+](=O)[O-])cncc2[N+](=O)[O-])c1,> 38 µM (inactive)
23,O=C(Oc1ccc(-n2cnnn2)cc1)c1ccco1,> 38 µM (inactive)
24,CC1(C)N=C(SCC(=O)Nc2ccc(Cl)cc2)C(c2ccc(Cl)cc2)=N1,29.8 µM
25,CCOC(=O)c1cnc(N)nc1C(F)(F)F,> 38 µM (inactive)
26,Cc1ccc(C2C(C#N)=C(N)Oc3n[nH]c(-c4ccccc4)c32)o1 (stereo not drawn),> 38 µM (inactive)
27,COc1ccc(N2C(=O)C(Cl)=C(N3CCN(Cc4ccccc4)CC3)C2=O)cc1,> 38 µM (inactive)

row,Compound,AC50
1,COc1cc(N=Nc2cccc(S(N)(=O)=O)c2)c2ccccc2c1N,34.1 µM
2,COc1cccc(-c2cc(=O)[nH][nH]2)c1,13.9 µM
3,CNc1ccc2nc3ccccc3[n+](C)c2c1,11.3 µM
4,Cc1nc2ccccc2c2c1C(=O)N(C(C)C)C2=O,> 38 µM (inactive)
5,Cc1nn(CCc2nn[nH]n2)c2nc(-c3ccc(C4CCCCC4)cc3)cc(C(F)(F)F)c12,24.6 µM
6,CC(=O)NCCn1c(SCc2ccccc2C)nc2ccccc2c1=O,> 38 µM (inactive)
7,COC(=O)c1ccccc1-c1ccc(C(c2c(C)[nH][nH]c2=O)c2c(C)[nH][nH]c2=O)o1,3.62 µM
8,FC(F)(F)c1nnc(-c2ccccc2)nc1Sc1ccccc1,> 38 µM (inactive)
9,O=c1cc(-c2ccc(Cl)c(Cl)c2)[nH][nH]1,8.07 µM
10,CCCc1nn(C)c2c1C(c1ccncc1)C(C#N)=C(N)O2 (stereo not drawn),> 38 µM (inactive)
11,Cc1nn(-c2ccccc2)c(Cl)c1CN(C(=O)CCl)c1cccc2ccccc12,0.933 µM
12,COc1cc(/C=N/NC(=S)Nc2cccc(Cl)c2C)ccc1OCC(=O)N1CC(C)OC(C)C1 (stereo not drawn),> 38 µM (inactive)
13,CCCC(=O)OCCNc1cc(Sc2nccn2C)c2nonc2c1[N+](=O)[O-],> 38 µM (inactive)
14,O=[N+]([O-])c1cccc(C=Nc2cccc3ccccc23)c1O,> 38 µM (inactive)
15,CCc1nnc(NC(=O)c2nc(S(=O)(=O)Cc3ccccc3)ncc2Cl)s1,31.2 µM
16,CC(NC(=O)/C(C#N)=C/c1ccc([N+](=O)[O-])o1)c1ccccc1 (stereo not drawn),> 38 µM (inactive)
17,CCOC(=O)C(C#N)C(c1cccnc1)c1c(C)[nH][nH]c1=O (stereo not drawn),> 38 µM (inactive)
18,O=C1C(Cl)=C(Nc2ccc(O)cc2)C(=O)c2ccccc21,2.7 µM
19,CCOc1cc(C(c2c(C)[nH][nH]c2=O)c2c(C)[nH][nH]c2=O)ccc1O,5.54 µM
20,C#CC(=O)N(c1cc(OC)ccc1OC)C(C(=O)NC1CCCC1)c1cccs1 (stereo not drawn),2.35 µM
21,CC(C)c1nnc(NC(=O)c2nc(S(=O)(=O)Cc3ccc(F)cc3)ncc2Cl)s1,> 38 µM (inactive)
22,COc1cc(NCCCC(C)N)c2ncccc2c1 (stereo not drawn),18.1 µM
23,CC1=NN(CCC#N)C(=O)/C1=C/c1ccc(N(C)C)cc1,22.4 µM
24,N=c1c2c(-c3ccccc3)c(-c3ccccc3)n(Cc3ccco3)c2ncn1Cc1ccccc1,5.8 µM
25,O=C(CCl)N1N=C(c2ccco2)CC1c1cccs1 (stereo not drawn),6.09 µM
26,CC(=O)N(CCC(Cc1ccccc1)c1ccc2c(c1)OCO2)Cc1ccccc1F (stereo not drawn),3.99 µM
